Measurements taken from PubChem BioAssay (NCI).
“And” between values parts separate entries of the source, which are not always exact repeats. Equal values may be shown once.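 Growth conditions: 96-well plates. Treatment: test compound, 48 hours, 5 concentrations. Analysis: linear interpolation between bracketing concentrations; unreached endpoints set to highest concentration. At the GI50, growth is halved. TGI denotes the concentration required for complete inhibition of growth.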

What was measured:
Assay in all cases: NCI anticancer screen, dose series, 48 h
A549 NSCLC = tested on: A549 NSCLC
CAKI-1 renal = tested on: CAKI-1 renal
COLO 205 colon = tested on: COLO 205 colon
HCT-116 colon = tested on: HCT-116 colon
OVCAR-4 ovarian = tested on: OVCAR-4 ovarian
OVCAR-5 ovarian = tested on: OVCAR-5 ovarian
SF-539 CNS = tested on: SF-539 CNS
SK-OV-3 ovarian = tested on: SK-OV-3 ovarian
SNB-75 CNS = tested on: SNB-75 CNS
786-0 renal = tested on: 786-0 renal

| Compound | TGI (A549 NSCLC) [µM] | TGI (CAKI-1 renal) | TGI (COLO 205 colon) [µM] | TGI (HCT-116 colon) [µM] | TGI (OVCAR-4 ovarian) [µM] | TGI (OVCAR-5 ovarian) [µM] | TGI (SF-539 CNS) [µM] | TGI (SK-OV-3 ovarian) [µM] | TGI (SNB-75 CNS) [µM] | TGI (786-0 renal) | GI50 (A549 NSCLC) [µM] | GI50 (CAKI-1 renal) [µM] | GI50 (COLO 205 colon) [µM] | GI50 (HCT-116 colon) [µM] | GI50 (OVCAR-4 ovarian) [µM] | GI50 (OVCAR-5 ovarian) [µM] | GI50 (SF-539 CNS) [µM] | GI50 (SK-OV-3 ovarian) [µM] | GI50 (SNB-75 CNS) [µM] |
| --- | --- | --- | --- | --- | --- | --- | --- | --- | --- | --- | --- | --- | --- | --- | --- | --- | --- | --- | --- |
| COc1cc2c(cc1Oc1c(Oc3c(O)c(OC)cc4c3C(CC(C)C)N(C)CC4)c(OC)cc3c1C(CC(C)C)N(C)CC3)C(CC(C)C)N(C)CC2 (centres undefined) | 6.39 | 4.5 µM | 0.837 | 3.85 | 8.15 | 17.7 | 1.45 | 11.8 | 3.01 | – | – | – | – | – | – | – | – | – | – |
| CC(=O)C(C(C)=O)[C@@H]1OC(C)(C)O[C@@H]1[C@H]1COC(C)(C)O1 | > 100 | > 100 µM | > 100 | > 100 | > 100 | > 100 | > 100 | – | – | > 100 µM | – | – | – | – | – | – | – | – | – |
| Cc1ccc(N=Nc2c(O)ccc3cc(S(=O)(=O)O)ccc23)cc1 | > 100 | > 100 µM and 80.8 µM | > 100 | > 100 | > 100 | > 100 | > 100 | > 100 | > 100 | > 100 µM and 25.2 µM | – | – | – | – | – | – | – | – | – |
| Cc1cc(OCCOCCC(F)(F)P(=O)(O)O)ccc1CCc1cnc2c(N)nc3cc(CCC(=O)O)ccc3c2c1 | > 100 | > 100 µM | > 100 | > 100 | > 100 | > 100 | > 100 | > 100 | > 100 | – | > 100 | 72.7 | > 100 | > 100 | > 100 | > 100 | > 100 | > 100 | 14 |
| COC(=O)c1cn(CC(O)CCl)nn1 (centres undefined) | > 100 | > 100 µM | > 100 | – | > 100 | > 100 | > 100 | – | > 100 | – | – | – | – | – | – | – | – | – | – |
| S=c1nc(N/N=C/c2cccs2)c2cn[nH]c2[nH]1 | 14.5 | 42.9 µM | > 100 | > 100 | > 100 | 49.5 | > 100 | > 100 | > 100 | > 100 µM | – | – | – | – | – | – | – | – | – |
| CN1Cc2cc(O)c(O)cc2C(O)C1 (centres undefined) | > 100 | > 100 µM | > 100 | > 100 | > 100 | > 100 | > 100 | > 100 | > 100 | – | – | – | – | – | – | – | – | – | – |
| COC(=O)CNC(=O)CCC(C)[C@H]1CCC2C3C(C[C@H](OC(C)=O)[C@@]21C)[C@@]1(C)CCC2(C[C@H]1C[C@H]3OC(C)=O)OOC1(CC[C@]3(C)C4C[C@H](OC(C)=O)[C@@]5(C)C(CC[C@@H]5C(C)CCC(=O)NCC(=O)OC)C4[C@H](OC(C)=O)C[C@@H]3C1)OO2 (some centres undefined) | 2.37 | 6.96 µM | – | 9.1 | 13.3 | 9.96 | 1.8 | 13.9 | 5.17 | 1.42 µM | – | – | – | – | – | – | – | – | – |
| COC1=C(C)C(=O)C2=C(C1=O)C1C3CC4=C(C(=O)C(OC)=C(C)C4=O)C(CNC(=O)C(C)O)N3C(C#N)C(C2)N1C (centres undefined) | – | 2 µM | < 0.01 | 2.18 | 0.334 | 0.0888 | < 0.0117 | 1.2 | 0.0171 | 1.24 µM | – | – | – | – | – | – | – | – | – |
| C=CC(C)C1(CCCOCc2ccccc2)C(=S)N2CCC3(CC24CCCC14)OCCO3 (centres undefined) | > 100 | > 100 µM | > 100 | – | > 100 | > 100 | – | > 100 | 5.82 | – | – | – | – | – | – | – | – | – | – |
| CN(O)C(=O)CCCC(=O)NCC(C)(C)CNC(=O)CCCC(=O)N(C)O | > 100 | > 100 µM | > 100 | – | > 100 | > 100 | > 100 | > 100 | > 100 | – | – | – | – | – | – | – | – | – | – |
| Cc1[nH]c2ccccc2c1/C=N/NC(=O)c1cccc(I)c1 | 85.6 | 50.4 µM | 27 | 51.4 | 43.2 | 70.4 | 38.2 | 93.5 | 54.5 | 45.5 µM | – | – | – | – | – | – | – | – | – |
| COC(=O)[C@]1(c2ccc(N(C)C)cc2OC)C[C@@H]2CCCN(CCc3c1[nH]c1ccccc31)C2 | > 65.5 | > 100 µM | 27.3 | 55.5 | 28.2 | > 100 | 36.8 | > 61.4 | 22.3 | – | – | – | – | – | – | – | – | – | – |
| O=P(Nc1ccccc1)(Oc1ccccc1)N(CCCl)CCCl (centres undefined) | > 100 | > 100 µM | > 100 | > 100 | > 100 | > 100 | > 100 | 44.2 | > 100 | – | – | – | – | – | – | – | – | – | – |
| O=C(c1cccnc1)N1N=C(c2ccccc2)CC1(O)c1cc(F)c(Cl)cc1Cl (centres undefined) | > 100 | > 100 µM | 31 | 30.6 | > 100 | > 100 | 32.3 | > 100 | 52.9 | 53.6 µM | – | – | – | – | – | – | – | – | – |
| CCCOP(=O)(OCCC)OC(C(F)(F)F)C(F)(F)F | – | – | – | > 100 | – | > 100 | > 100 | > 100 | > 100 | – | – | – | – | – | – | – | – | – | – |
| O=C(Nc1ccccc1Cl)c1ccc([N+](=O)[O-])cc1 | > 100 | > 100 µM | > 100 | – | – | – | > 100 | > 100 | 47.5 | > 100 µM | – | – | – | – | – | – | – | – | – |
| O=C(O)/C(=C\c1ccc(O)cc1)c1cccc2ccccc12 | > 100 | > 100 µM | – | > 100 | > 100 | > 100 | – | – | > 100 | > 100 µM | – | – | – | – | – | – | – | – | – |
| COc1ccc(-c2ncn(C[Si](C)(C)C)c2-c2ccc(OC)cc2)cc1 | 27.2 | 21.9 µM | 11.7 | 13 | 25.6 | 18.3 | 27.5 | 36.9 | 28.3 | 18.7 µM | – | – | – | – | – | – | – | – | – |
| CC(C)C(=O)/C=C/S/C=C/C(=O)C(C)C | > 100 | 10.7 µM | 8.16 | – | > 100 | 22.1 | 60.2 | > 100 | > 100 | 6.52 µM | – | – | – | – | – | – | – | – | – |
| COc1ccc(NC(C(N)=O)c2cc3cc(Br)ccc3nc2Cl)cc1 (centres undefined) | > 100 | > 100 µM | > 100 | > 100 | > 100 | > 100 | > 100 | > 100 | > 100 | > 100 µM | – | – | – | – | – | – | – | – | – |
| CCCCCCCCCCCCCC[n+]1ccc(C(N)=O)cc1 | 6.65 | 15 µM | 2.69 | – | 18.2 | 4.12 | – | 10.9 | 4.17 | – | 2.4 | 3.04 | 1.27 | – | 3.26 | 1.2 | – | 2.33 | 1.7 |
